Experimental data: the Deep4Chem optical property database
One block for each compound: values may come before it.

Assay: solvent given as SMILES

SMILES: COc1ccc(N(c2ccc(OC)cc2)c2ccc3c4cccc5c(N(c6ccc(OC)cc6)c6ccc(OC)cc6)ccc(c6cccc2c63)c54)cc1
- absorption maximum (in C1CCCCC1): 519 nm
- absorption maximum (in C1CCOC1): 515 nm
- absorption maximum (in CC#N): 508 nm
- absorption maximum (in Cc1ccccc1): 519 nm
- absorption maximum (in ClCCl): 514 nm

SMILES: Cc1ccsc1-c1cc2c3cc(-c4sccc4C)c4nc(C(F)(F)C(F)(F)C(F)(F)F)nc5c(-c6sccc6C)cc(c6cc(-c7sccc7C)c7nc(C(F)(F)C(F)(F)C(F)(F)F)nc1c7c26)c3c45
- absorption maximum (in C1CCOC1): 532 nm

SMILES: Cc1ccc2ccccc2c1
- absorption maximum (in C1CCCCC1): 303.77 nm

SMILES: COc1ccc(C2=[N+]3C(=Nc4c(-c5cc(OC)c(OC)c(OC)c5)c(Br)c(-c5ccc(OC)cc5)n4[B-]3(F)F)C(c3cc(OC)c(OC)c(OC)c3)=C2Br)cc1
- absorption maximum (in Cc1ccccc1): 689 nm

SMILES: Cc1c[nH]c(=O)[nH]c1=O
- absorption maximum (in CC#N): 261 nm

SMILES: CC(C)(C)c1cc2ccc3cc(C(C)(C)C)cc4c3c2c(c1)c(=O)n1c4nc2c3ccccc3c3ccccc3c21
- absorption maximum (in C1CCOC1): 354 nm
- absorption maximum (in CC#N): 365 nm
- absorption maximum (in CC(C)=O): 365 nm
- absorption maximum (in CCCCCC): 367 nm
- absorption maximum (in CCO): 366 nm
- absorption maximum (in CCOC(C)=O): 366 nm
- absorption maximum (in CO): 362 nm
- absorption maximum (in CS(C)=O): 368 nm
- absorption maximum (in Cc1ccc(C)cc1): 368 nm
- absorption maximum (in ClC(Cl)(Cl)Cl): 369 nm
- absorption maximum (in ClC(Cl)Cl): 368 nm
- absorption maximum (in c1ccccc1): 369 nm

SMILES: N#Cc1cc(C#N)c(-n2c3ccccc3c3ccccc32)cc1-n1c2ccccc2c2ccccc21
- absorption maximum (in Cc1ccccc1): 374 nm

SMILES: COc1cc2c(cc1/C=C(\C#N)c1nc3ccccc3s1)c1ccccc1n2C
- absorption maximum (in C1CCOC1): 433 nm
- absorption maximum (in CC#N): 431 nm
- absorption maximum (in CCOC(C)=O): 430 nm
- absorption maximum (in CN(C)C=O): 439 nm
- absorption maximum (in CO): 437 nm
- absorption maximum (in CS(C)=O): 443 nm
- absorption maximum (in Cc1ccccc1): 431 nm
- absorption maximum (in ClC(Cl)Cl): 434 nm
- absorption maximum (in ClCCl): 435 nm

SMILES: C1=C(c2ccc(-c3cccs3)s2)CCC1
- absorption maximum (in C1CCOC1): 345 nm
- absorption maximum (in CC#N): 342 nm
- absorption maximum (in CCCCCC): 341 nm
- absorption maximum (in CCO): 341 nm
- absorption maximum (in OCCOCCO): 347 nm
- absorption maximum (in c1ccncc1): 348 nm

SMILES: COc1cc(/C=C2/SC(=O)NC2=O)cc(OC)c1O
- absorption maximum (in C1CCCCC1): 354 nm
- absorption maximum (in C1COCCO1): 367 nm
- absorption maximum (in CC#N): 362 nm
- absorption maximum (in CN(C)C=O): 341 nm
- absorption maximum (in CO): 359 nm
- absorption maximum (in O): 358 nm
- absorption maximum (in OCC(O)CO): 364 nm
- absorption maximum (in OCCO): 370 nm

SMILES: Cc1ccc(OCc2cc(=O)oc3c2ccc2ccccc23)cc1
- absorption maximum (in C1CCOC1): 352 nm
- absorption maximum (in C1COCCO1): 352 nm
- absorption maximum (in CCOC(C)=O): 351 nm
- absorption maximum (in CO): 352 nm
- absorption maximum (in Cc1ccccc1): 354 nm
- absorption maximum (in ClCCl): 354 nm

SMILES: CCCCC(CC)COc1cc(OCC(CC)CCCC)c2c#cc3ccc4oc5ccc(c#cc6cc(c#cc7ccc8oc9ccc(c#cc1c2)cc9c8c7)c(C(CCCC)OCCC)cc6C(CCCC)OCCC)cc5c4c3 (stereo not drawn)
- absorption maximum (in ClCCl): 328 nm

SMILES: N#Cc1cccc(N2c3ccccc3C(c3ccccc3)(c3ccccc3)c3ccccc32)c1
- absorption maximum (in Cc1ccccc1): 284 nm

Continued, values first:

- absorption maximum (in CN(C)C=O): 374 nm
SMILES: CCN(CC)c1ccc(-c2nc(Oc3ccc(-c4nc5ccccc5s4)cc3)nc(Oc3ccc(-c4nc5ccccc5s4)cc3)n2)cc1

- absorption maximum (in ClC(Cl)Cl): 317 nm
SMILES: c1ccc(-c2ncc3ccccn23)cc1

- absorption maximum (in CCCCCC): 579 nm
SMILES: CC(C)[Si](C#Cc1c2nsnc2c(C#C[Si](C(C)C)(C(C)C)C(C)C)c2nc3c(ccc4cc5ccccc5cc43)nc12)(C(C)C)C(C)C

- absorption maximum (in ClC(Cl)Cl): 297 nm
SMILES: N#Cc1ccc(C#Cc2ccccc2C#N)cc1

- absorption maximum (in C1CCCCC1): 395 nm
- absorption maximum (in C1CCOC1): 395 nm
- absorption maximum (in CC#N): 396 nm
- absorption maximum (in CO): 398 nm
- absorption maximum (in CS(C)=O): 398 nm
- absorption maximum (in ClCCl): 396 nm
- absorption maximum (in O): 346 nm
SMILES: CC1=N/C(=C\c2ccccc2N(C)C)C(=O)N1C

- absorption maximum (in ClCCl): 373 nm
- absorption maximum (in O): 326 nm
SMILES: O=Cc1ccc(-c2ccc(-c3nc4ccccc4s3)c(O)c2)o1

- absorption maximum (in ClCCl): 323 nm
SMILES: Cc1cc2c3ccccc3[nH]c2c2[nH]c3ccccc3c12

- absorption maximum (in ClC(Cl)Cl): 408 nm
SMILES: O=C1CC(c2ccc([N+](=O)[O-])cc2)c2c(c3ccccc3c3nc4ccccc4nc23)O1 (stereo not drawn)

- absorption maximum (in CO): 755 nm
- absorption maximum (in O): 750 nm
SMILES: CC1(C)C2=[N+](CCCCCC(=O)NCCNC(=O)CCCCCN3/C(=C/C=C/C=C/C=C/2)C(C)(C)c2cc(S(=O)(=O)[O-])ccc23)c2ccc(S(=O)(=O)[O-])cc21

- absorption maximum (in ClCCl): 360 nm
SMILES: O=S1(=O)C2=C(c3ccccc31)C1(c3ccccc32)c2ccccc2-c2sc3ccccc3c21 (stereo not drawn)

- absorption maximum (in C1CCCCC1): 604.5 nm
- absorption maximum (in CCOC(C)=O): 604.5 nm
SMILES: CC1=[N+]2C(=C(c3ccc(C=O)cc3)c3ccc(C)n3[B-]2(F)F)C=C1c1cc2n(c1)[B-](F)(F)[N+]1=CC=CC1=C2c1c(C)cc(C)cc1C
